Format in all cases: cell-based
One assay relates to SWAP-70. In words: FACS-FRET of SWAP-70 dimerization in living cells. On the procedure:
B2 was added to the cells 15 minutes prior to stimulation.
FACS-FRET of SWAP-70 in living cells: The method was in line with that previously described by Betaneli and Jessberger (2020). Briefly, two versions of SWAP-70, differently tagged with the fluorescent dyes Cerulean and Venus, were stably expressed in 293T cells. Upon activation of the cells, e.g., by sodium vanadate, SWAP-70 dimerizes. Thereby the two fluorophores associate and generate a fluorescence resonance energy transfer (FRET) signal, which is measured by FACS. FACS-FRET allows to analyze large numbers of cells simultaneously.
Two versions of SWAP-70, differently tagged with the fluorescent dyes Cerulean and Venus, were stably expressed in 293T cells. Upon activation of the cells, e.g., by sodium vanadate, SWAP-70 dimerizes. Thereby the two fluorophores associate and generate a fluorescence resonance energy transfer (FRET) signal, which is measured by FACS. FACS-FRET allows to analyze large numbers of cells simultaneously. […] B2 was added to the cells 15 minutes prior to stimulation.

Assay [1] concerns human primary neutrophils. The assay is described as follows: Neutrophil NETosis (PMA or pyocyanin triggered, extracellular DNA, Sytox Green). The settings on record: 3 hours (FIG. 3). On the procedure:
The effect of 3 different concentrations (from left to right for each treatment: 100, 50 and 20 μM) of B2 is shown as % reduction compared to untreated control; average of 3 experiments.
Neutrophil NETosis: Neutrophil production of extracellular traps, NETosis, was measured on human primary neutrophils, isolated from fresh blood samples as described above or by Pancoll gradient centrifugation. Neutrophils in RPMI at 4×10^6 cells/ml were triggered to undergo NETosis in wells of a 96-well plate at a total cell number of 2×10^5 cells per well. The cells were treated for 3 hours with either the […] phorbol myristate acetate (100 nM PMA) or the bacterial product pyocyanin (at 10 μM). Extracellular DNA was measured by fluorometry using the dye Sytox™ Green and/or by fluorescence microscopy.
To investigate the effect of B2 on neutrophil NETosis, human primary neutrophils, isolated from fresh blood samples, were triggered to undergo NETosis (the expulsion of DNA in the environment) by treatment for 3 hours with either the […] phorbol myristate acetate (PMA) or the bacterial product pyocyanin. Extracellular DNA was measured by photometry using the dye Sytox™ Green.

In assay [2] the test system is primary human B lymphocytes. In words: B lymphocyte cytokine release (cytokine array). The settings on record: CD40L and IL4; FIG. 9. On the procedure:
The % reduction compared to the stimulated control is shown; average of 2 experiments.
B lymphocyte cytokine release: Primary human B lymphocytes isolated from fresh buffy coat were stimulated at a cell density of 5×10^5/ml in 1 ml by CD40L and IL4 for 5 days in a 24-well plate, and the levels of 105 cytokines in the cell culture supernatant were measured by the R&D Systems Human XL cytokine antibody array as per manufacturer's instructions. The signals were measured by a fluorescence-based photometric read-out in the Li—COR Odyssey Fluorescent imaging system, and the spots quantified by Fiji software.
To investigate the modulation of B lymphocyte cytokine release by B2, primary human B lymphocytes isolated from fresh buffy coat were stimulated by CD40L and IL4 for […] and the levels of 105 cytokines in the cell culture supernatant were measured by the R&D Systems Human XL cytokine array and a fluorescence-based photometric read-out.

For assay [3], the system named is Primary human pulmonary microvascular endothelial cells (HPMEC). The assay is described as follows: Neutrophil adhesion to endothelial cells. To be noted: 10, 20 and 50 μM B2, TNF-α stimulated HPMEC (FIG. 11). The source says:
The number of adhered green-fluorescent labeled neutrophils per field of view normalized to the area covered by endothelial cells per field of view is shown. Three concentrations of B2 are shown next to the solvent (DMSO) control. An exemplary experiment out of three is shown.
Neutrophil adhesion to endothelial cells: Primary human pulmonary microvascular endothelial cells (HPMEC) were purchased from Promocell and maintained in endothelial cell media from Promocell as per the company's protocol. The endothelial cells were plated in flat bottom 96 well plastic plates at a concentration of 50,000 cells/well. After 24 h the endothelial cells were stimulated overnight by TNF-α (100 ng/ml) and the inhibitor. Neutrophils were isolated from whole blood using MACSxpress Neutrophil isolation kit. […] Samples were analyzed in triplicates and 3 fields of view were imaged per well. Cells per field of view were quantified using FiJi software.
To investigate the adhesion of neutrophils to endothelial cells, human primary neutrophils, were fluorescently labeled with 1 μM CellTracker dye and resuspended in HBS solution prior to addition of B2 or DMSO. Green fluorescent adherent cells were counted, the area covered by endothelial cell was measured, and the number of neutrophils adherent to endothelial cells normalized for the area covered by endothelial cells.

In assay [4] the test system is Human primary coronary artery endothelial cells (HCAEC). In words: Coronary artery endothelial cell cytokine release (TNFα triggered, cytokine array). To be noted: 50 μM B2, TNFα. The procedure:
Human primary coronary artery endothelial cells (HCAEC) were triggered to produce cytokines by the pro-inflammatory cytokine TNFα. The levels of 105 cytokines in the cell culture supernatant were measured by the R&D Systems Human XL cytokine array and a fluorescence-based photometric read-out. The table lists cytokines whose production was reduced by >50% (left) or 20 to 50% upon treatment with 50 μM B2 (right).

Like-named read-outs stand apart in the source and are kept apart here. A value given as a limit tells only on which side of the number the result lay.

Turning to `Cc1onc(-c2ccccc2Cl)c1C(=O)Nc1nc2ccc([N+](=O)[O-])cc2s1` [B2, 3-(2-chlorophenyl)-5-methyl-N-(6-nitrobenzo[d]thiazol-2-yl)isoxazole-4-carboxamide], the “FACS-FRET signal, SWAP-70 dimerization at earlier time intervals” value with SWAP-70 (50 μM B2, 5-10 and 10-15 minutes after stimulation, B2 added 15 minutes prior) is listed as “inhibition by 50 μM B2 at earlier time intervals”. The “FACS-FRET signal (FRET efficiency), SWAP-70 dimerization” value in the assay with SWAP-70 (50, 25 and 10 μM B2, 20 minutes after stimulation, B2 added 15 minutes prior) is recorded as “inhibition of the FACS-FRET signal”. Besides, the “SWAP-70 dimerization in living cells” value with SWAP-70 (293T cells, sodium vanadate activation) was “inhibits SWAP-70 dimerization in living cells”. In assay [1], the “neutrophil NETosis” value is given as “substantially reduced”. For the same compound, the “B cell cytokine release profile” value in assay [2] is on record as “reducing specific pro-inflammatory cytokines”. For the same compound, the “neutrophil adhesion to endothelial cells” value in assay [3] is “inhibition of neutrophil adhesion to endothelial cells”. The inhibition (commonly the share of the control response that was lost under treatment) at 50 µM in assay [4] (read-out: CCL5 production, inhibition) was 20 to 50%; in assay [4] (read-out: CXCL1 production, inhibition), 20 to 50%; in assay [4] (read-out: CXCL5 production, inhibition) it was more than 50%; in assay [4] (read-out: CXCL10 production, inhibition), more than 50%; in assay [4] (read-out: CXCL11 production, inhibition), more than 50%; in assay [4] (read-out: GM-CSF production, inhibition) it was 20 to 50%. Besides, the inhibition at 50 µM was 20 to 50% in assay [4] (read-out: ICAM1 production, inhibition); more than 50% in assay [4] (read-out: IGFBP2 production, inhibition); more than 50% in assay [4] (read-out: Thrombospondin-1 production, inhibition); more than 50% in assay [4] (read-out: VCAM1 production, inhibition).

(Values after US20260337187A1, “COMPOUNDS FOR TREATMENT OF INFLAMMATORY PROCESSES” (THORNE LIMITED, priority 2022, published 2026).)
